Source: patent publication US20220289794A1, “SYNTHETIC ANTIMICROBIAL PEPTIDES” (priority 2019, published 2022)
Values after ≈ are worked out from the molar mass of the structure shown. Non-standard residues stand in square brackets, D forms with d. Residues, ends and D or L forms follow the SMILES beside them. dDip = N[C@@H](C(=O)O)C(c1ccccc1)c1ccccc1; Dip = N[C@H](C(=O)O)C(c1ccccc1)c1ccccc1; 2Nal = N[C@@H](Cc1ccc2ccccc2c1)C(=O)O; d2Nal = N[C@H](Cc1ccc2ccccc2c1)C(=O)O

Legend:
in vitro = settings: human, fresh human red blood cells (washed), pH 7.4
Method: Hemolytic Assay. We investigated the hemolytic effect (hemolytic assay) of the compounds on fresh human red blood cells to determine the cytotoxicity of the compounds. The hemolytic assay was conducted by serial dilution using 1% Triton X, 0.2% Triton X and PBS buffer pH 7.4 as controls. […] 3 mL of the fresh blood sample was washed severally by adding about 10 mL PBS buffer pH 7.4 and centrifuge at 4000 G until the supernatant was cleared. The washed blood sample was diluted to 20 mL volume to be used in the study. An aliquot of 190 μL blood sample was added to 10 μL compound sample in an Eppendorf tube and incubated for 30 min. After incubation, it was centrifuged at 4000 G for 5 min. 100 μL supernatant aliquot was diluted with 1 mL PBS buffer, and the absorbance was measured at 567 nm for the sample. % hemolysis is calculated as follows:
Where AX is the absorbance at various serial concentrations A0 absorbance of PBS buffer pH 7.4 AX absorbance of 0.2% Triton X control equivalent to 100%

[1] = test system: Pseudomonas aeruginosa (ATCC 27883); settings: ATCC 27883
human red blood cells = test system: human red blood cells; parameters: unit not given beside the values
[2] = test system: Escherichia coli (ATCC 25922); settings: ATCC 25922
[3] = test system: Methicillin-resistant Staphylococcus aureus MRSA (ATCC BAA-1556); settings: ATCC BAA-1556
S. aureus ATCC 29213 = settings: ATCC 29213

Row | SMILES | HC50 at 0.5 h (in vitro) [µg/mL] | MIC P. aeruginosa ATCC 27883 [1] [µg/mL] | HC50 (human red blood cells) | MIC E. coli ATCC 25922 [2] [µg/mL] | MIC MRSA ATCC BAA-1556 [3] [µg/mL] | MIC S. aureus ATCC 29213 (S. aureus ATCC 29213) [µg/mL]
1 | N=C(N)NCCC[C@@H]1NC(=O)[C@@H](CCCNC(=N)N)NC(=O)[C@H](CCCNC(=N)N)NC(=O)[C@@H](CCCNC(=N)N)NC(=O)[C@@H](Cc2ccc3ccccc3c2)NC(=O)[C@@H](Cc2ccc3ccccc3c2)NC(=O)[C@@H](Cc2ccc3ccccc3c2)NC1=O [IFX-082, c[arg-Arg-arg-Arg-naI-naI-naI]] (cyclo([dR]R[dR]R[d2Nal][d2Nal][d2Nal])) | 150 | 12.5 (≈ 10.3 µM) |  |  |  | 
2 | N=C(N)NCCC[C@@H]1NC(=O)[C@H](CCCNC(=N)N)NC(=O)[C@H](CCCNC(=N)N)NC(=O)[C@H](Cc2ccc3ccccc3c2)NC(=O)[C@@H](Cc2ccc3ccccc3c2)NC(=O)[C@H](Cc2ccc3ccccc3c2)NC(=O)[C@H](CCCNC(=N)N)NC1=O [IFX-075, c[Arg-Arg-Arg-Arg-NaI-naI-NaI]] (cyclo(RRRR[2Nal][d2Nal][2Nal])) | 100 | 12.5 (≈ 10.3 µM) |  |  |  | 
3 | N=C(N)NCCC[C@@H]1NC(=O)[C@H](CCCNC(=N)N)NC(=O)[C@H](CCCNC(=N)N)NC(=O)[C@H](CCCNC(=N)N)NC(=O)[C@@H](Cc2ccc3ccccc3c2)NC(=O)[C@H](Cc2ccc3ccccc3c2)NC(=O)[C@H](Cc2ccc3ccccc3c2)NC1=O [IFX-074, c[Arg-Arg-Arg-Arg-NaI-NaI-naI]] (cyclo(RRRR[2Nal][2Nal][d2Nal])) | 200 | 12.5 (≈ 10.3 µM) |  |  |  | 
4 | N=C(N)NCCC[C@H]1NC(=O)[C@H](Cc2ccc3ccccc3c2)NC(=O)[C@H](Cc2ccc3ccccc3c2)NC(=O)[C@H](Cc2ccc3ccccc3c2)NC(=O)[C@@H](CCCNC(=N)N)NC(=O)[C@@H](CCCNC(=N)N)NC(=O)[C@@H](CCCNC(=N)N)NC1=O [IFX-087, c[arg-arg-arg-arg-NaI-NaI-NaI]] (cyclo([dR][dR][dR][dR][2Nal][2Nal][2Nal])) | 145 | 12.5 (≈ 10.3 µM) |  |  |  | 
5 | N=C(N)NCCC[C@H]1NC(=O)[C@@H](CCCNC(=N)N)NC(=O)[C@@H](CCCNC(=N)N)NC(=O)[C@@H](Cc2ccc3ccccc3c2)NC(=O)[C@@H](Cc2ccc3ccccc3c2)NC(=O)[C@@H](Cc2ccc3ccccc3c2)NC(=O)[C@@H](CCCNC(=N)N)NC1=O [IFX-081, c[arg-arg-arg-arg-naI-naI-naI]] (cyclo([dR][dR][dR][dR][d2Nal][d2Nal][d2Nal])) | 200 | 50 (≈ 41.1 µM) |  |  |  | 
6 | N=C(N)NCCC[C@@H]1NC(=O)[C@@H](CCCNC(=N)N)NC(=O)[C@H](CCCNC(=N)N)NC(=O)[C@@H](CCCNC(=N)N)NC(=O)[C@@H](C(c2ccccc2)c2ccccc2)NC(=O)[C@@H](C(c2ccccc2)c2ccccc2)NC(=O)[C@@H](C(c2ccccc2)c2ccccc2)NC1=O [IFX-068, c[arg-Arg-arg-Arg-dip-dip-dip]] (cyclo([dR]R[dR]R[dDip][dDip][dDip])) | 280 | 12.5 (≈ 9.66 µM) |  |  |  | 
7 | N=C(N)NCCC[C@@H]1NC(=O)[C@@H](CCCNC(=N)N)NC(=O)[C@H](CCCNC(=N)N)NC(=O)[C@@H](CCCNC(=N)N)NC(=O)[C@@H](C(c2ccccc2)c2ccccc2)NC(=O)[C@H](C(c2ccccc2)c2ccccc2)NC(=O)[C@@H](C(c2ccccc2)c2ccccc2)NC1=O [IFX-069, c[arg-Arg-arg-Arg-dip-Dip-dip]] (cyclo([dR]R[dR]R[dDip][Dip][dDip])) | 200 | 6.2 (≈ 4.79 µM) |  |  |  | 
8 | N=C(N)NCCC[C@@H]1NC(=O)[C@H](CCCNC(=N)N)NC(=O)[C@H](CCCNC(=N)N)NC(=O)[C@@H](CCCNC(=N)N)NC(=O)[C@H](Cc2ccc3ccccc3c2)NC(=O)[C@H](Cc2ccc3ccccc3c2)NC(=O)[C@H](Cc2ccc3ccccc3c2)NC1=O [IFX-080, c[arg-Arg-Arg-Arg-NaI-NaI-NaI]] (cyclo([dR]RRR[2Nal][2Nal][2Nal])) | 200 | 12.5 (≈ 10.3 µM) |  |  |  | 
9 | N=C(N)NCCC[C@@H]1NC(=O)[C@H](CCCNC(=N)N)NC(=O)[C@H](Cc2ccc3ccccc3c2)NC(=O)[C@H](Cc2ccc3ccccc3c2)NC(=O)[C@@H](Cc2ccc3ccccc3c2)NC(=O)[C@H](CCCNC(=N)N)NC(=O)[C@H](CCCNC(=N)N)NC1=O [IFX-076, c[Arg-Arg-Arg-Arg-naI-NaI-NaI]] (cyclo(RRRR[d2Nal][2Nal][2Nal])) | 100 | 12.5 (≈ 10.3 µM) |  |  |  | 
10 | N=C(N)NCCC[C@H]1NC(=O)[C@H](C(c2ccccc2)c2ccccc2)NC(=O)[C@H](C(c2ccccc2)c2ccccc2)NC(=O)[C@H](C(c2ccccc2)c2ccccc2)NC(=O)[C@@H](CCCNC(=N)N)NC(=O)[C@@H](CCCNC(=N)N)NC(=O)[C@@H](CCCNC(=N)N)NC1=O [IFX-073, c[arg-arg-arg-arg-Dip-Dip-Dip]] (cyclo([dR][dR][dR][dR][Dip][Dip][Dip])) | 245 | 6.2 (≈ 4.79 µM) |  |  |  | 
11 | N=C(N)NCCC[C@@H]1NC(=O)[C@H](CCCNC(=N)N)NC(=O)[C@H](CCCNC(=N)N)NC(=O)[C@@H](Cc2ccc3ccccc3c2)NC(=O)[C@@H](Cc2ccc3ccccc3c2)NC(=O)[C@@H](Cc2ccc3ccccc3c2)NC(=O)[C@H](CCCNC(=N)N)NC1=O [IFX-086, c[Arg-Arg-Arg-Arg-naI-naI-naI]] (cyclo(RRRR[d2Nal][d2Nal][d2Nal])) | 155 | 12.5 (≈ 10.3 µM) |  |  |  | 
12 | N=C(N)NCCC[C@@H]1NC(=O)[C@H](CCCNC(=N)N)NC(=O)[C@H](CCCNC(=N)N)NC(=O)[C@@H](C(c2ccccc2)c2ccccc2)NC(=O)[C@@H](C(c2ccccc2)c2ccccc2)NC(=O)[C@@H](C(c2ccccc2)c2ccccc2)NC(=O)[C@H](CCCNC(=N)N)NC1=O [IFX-072, c[Arg-Arg-Arg-Arg-dip-dip-dip]] (cyclo(RRRR[dDip][dDip][dDip])) | 265 | 12.5 (≈ 9.66 µM) |  |  |  | 
13 | N=C(N)NCCC[C@@H]1NC(=O)[C@H](C(c2ccccc2)c2ccccc2)NC(=O)[C@@H](C(c2ccccc2)c2ccccc2)NC(=O)[C@H](C(c2ccccc2)c2ccccc2)NC(=O)[C@@H](CCCNC(=N)N)NC(=O)[C@H](CCCNC(=N)N)NC(=O)[C@@H](CCCNC(=N)N)NC1=O [IFX-071, c[Arg-arg-Arg-arg-Dip-dip-Dip]] (cyclo(R[dR]R[dR][Dip][dDip][Dip])) | 150 | 12.5 (≈ 9.66 µM) |  |  |  | 
14 | N=C(N)NCCC[C@@H]1NC(=O)[C@H](CCCNC(=N)N)NC(=O)[C@@H](CCCNC(=N)N)NC(=O)[C@H](CCCNC(=N)N)NC(=O)[C@H](Cc2ccc3ccccc3c2)NC(=O)[C@H](Cc2ccc3ccccc3c2)NC(=O)[C@H](Cc2ccc3ccccc3c2)NC1=O [IFX-079, c[Arg-arg-Arg-Arg-NaI-NaI-NaI]] (cyclo(R[dR]RR[2Nal][2Nal][2Nal])) | 100 | 12.5 (≈ 10.3 µM) |  |  |  | 
15 | N=C(N)NCCC[C@@H]1NC(=O)[C@H](Cc2ccc3ccccc3c2)NC(=O)[C@@H](Cc2ccc3ccccc3c2)NC(=O)[C@H](Cc2ccc3ccccc3c2)NC(=O)[C@@H](CCCNC(=N)N)NC(=O)[C@H](CCCNC(=N)N)NC(=O)[C@@H](CCCNC(=N)N)NC1=O [IFX-085, c[Arg-arg-Arg-arg-NaI-naI-NaI]] (cyclo(R[dR]R[dR][2Nal][d2Nal][2Nal])) | 145 | 12.5 (≈ 10.3 µM) |  |  |  | 
16 | N=C(N)NCCC[C@@H]1NC(=O)[C@@H](CCCNC(=N)N)NC(=O)[C@H](CCCNC(=N)N)NC(=O)[C@@H](CCCNC(=N)N)NC(=O)[C@@H](Cc2ccc3ccccc3c2)NC(=O)[C@H](Cc2ccc3ccccc3c2)NC(=O)[C@@H](Cc2ccc3ccccc3c2)NC1=O [IFX-083, c[arg-Arg-arg-Arg-naI-NaI-naI]] (cyclo([dR]R[dR]R[d2Nal][2Nal][d2Nal])) | 170 | 12.5 (≈ 10.3 µM) |  |  |  | 
17 | N=C(N)NCCC[C@H](NC(=O)[C@H](CCCNC(=N)N)NC(=O)[C@@H](N)CCCNC(=N)N)C(=O)N[C@@H](Cc1ccc2ccccc2c1)C(=O)N[C@@H](Cc1c[nH]c2ccccc12)C(=O)N[C@@H](Cc1ccc2ccccc2c1)C(=O)O [IFX-024-1, NH2-R-R-R-NaI-Trp-NaI-OH] (H-RRR[2Nal]W[2Nal]-OH) |  | 25 (≈ 23.4 µM) | 410 | 12.5 (≈ 11.7 µM) | 6.2 (≈ 5.81 µM) | 6.2 (≈ 5.81 µM)
18 | N=C(N)NCCC[C@@H]1NC(=O)[C@H](CCCNC(=N)N)NC(=O)[C@H](CCCNC(=N)N)NC(=O)[C@H](Cc2ccc3ccccc3c2)NC(=O)[C@H](Cc2ccc3ccccc3c2)NC(=O)[C@H](CCCNC(=N)N)NC1=O [IFX-011, c[Arg-Arg-Arg-Arg-NaI-NaI]] (cyclo([2Nal][2Nal]RRRR)) |  | 50 (≈ 49.1 µM) | 295 | 50 (≈ 49.1 µM) | 6.2 (≈ 6.08 µM) | 6.2 (≈ 6.08 µM)
19 | N=C(N)NCCC[C@H](NC(=O)[C@H](Cc1ccc2ccccc2c1)NC(=O)[C@H](Cc1ccc2ccccc2c1)NC(=O)[C@H](CCCNC(=N)N)NC(=O)[C@H](CCCNC(=N)N)NC(=O)[C@H](Cc1ccc2ccccc2c1)NC(=O)[C@@H](N)CCCNC(=N)N)C(=O)O [IFX-018-1, NH2-Arg-NaI-Arg-Arg-NaI-NaI-Arg-OH] (H-R[2Nal]RR[2Nal][2Nal]R-OH) |  | 50 (≈ 40.5 µM) | 405 | 25 (≈ 20.3 µM) | 25 (≈ 20.3 µM) | 12.5 (≈ 10.1 µM)
20 | N=C(N)NCCC[C@H](NC(=O)[C@H](CCCNC(=N)N)NC(=O)[C@H](CCCNC(=N)N)NC(=O)[C@@H](N)CCCNC(=N)N)C(=O)N[C@@H](Cc1ccc2ccccc2c1)C(=O)N[C@@H](Cc1ccc2ccccc2c1)C(=O)N[C@@H](Cc1ccc2ccccc2c1)C(=O)N[C@@H](Cc1ccc2ccccc2c1)C(=O)O [IFX-006-1, NH2-Arg-Arg-Arg-Arg-NaI-NaI-NaI-NaI-OH] (H-RRRR[2Nal][2Nal][2Nal][2Nal]-OH) |  | >100 | 140 | 50 (≈ 34.9 µM) | 6.2 (≈ 4.33 µM) | 3.1 (≈ 2.17 µM)
